Measurements taken from patent publication US12492173B2, “Herbicidal substituted N-tetrazolyl aryl carboxamides” (Bayer Aktiengesellschaft, priority 2019, dated 2025).

system: Echinochloa crus-galli; assay: Pre-emergence herbicidal action, ECHCG; type: in vivo; settings: dosage 320 g/ha, scored visually after 3 weeks vs untreated controls (100% = plants have died)
How it was run: (§1)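 Pre-emergence soil spray over sandy loam-covered seeds; greenhouse 3 weeks; % visual damage (0% = control, 100% = dead).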

Question: Which “herbicidal activity ECHCG” value does the source give for CCCn1nnnc1NC(=O)c1ccc(C(F)(F)F)c(CS(=O)(=O)CC)c1C [Example 3-88] here?
Answer: 100%

Question: With CCS(=O)(=O)Cc1c(C(F)(F)F)ccc(C(=O)Nc2nnnn2C)c1Cl [Example 1-301] as the molecule, how does the “herbicidal activity ECHCG” value read?
Answer: 100%

Question: With Cc1c(C(=O)Nc2nnnn2C)ccc(C(F)(F)F)c1CS(C)(=O)=O [Example 1-85] as the molecule, how does the “herbicidal activity ECHCG” value read?
Answer: 100%

Question: Which “herbicidal activity ECHCG” value does the source give for CCn1nnnc1NC(=O)c1ccc(C(F)(F)F)c(CS(C)(=O)=O)c1Br [Example 2-382] here?
Answer: 100%

Question: With CCn1nnnc1NC(=O)c1ccc(C)c(CSC)c1Cl [Example 2-287] as the molecule, how does the “herbicidal activity ECHCG” value read?
Answer: 100%

Question: Which “herbicidal activity ECHCG” value does the source give for CCn1nnnc1NC(=O)c1ccc(C(F)(F)F)c(CSC)c1SC [Example 2-161] here?
Answer: 100%

Question: For CSCc1c(C(F)(F)F)ccc(C(=O)Nc2nnnn2C)c1F [Example 1-242], which “herbicidal activity ECHCG” value is on record?
Answer: 100%

Question: For Cn1nnnc1NC(=O)c1ccc(C(F)(F)F)c(CS(C)(=O)=O)c1Cl [Example 1-298], which “herbicidal activity ECHCG” value is on record?
Answer: 100%

Question: With Cc1c(C(=O)Nc2nnnn2C)ccc(C(F)(F)F)c1C[S+](C)[O-] (centres unmarked) [Example 1-84] as the molecule, how does the “herbicidal activity ECHCG” value read?
Answer: 100%

Question: CCCn1nnnc1NC(=O)c1ccc(C(F)F)c(CSC)c1C [Example 3-107] was tested. Which “herbicidal activity ECHCG” value did it give?
Answer: 100%

system: Veronica persica; assay: Pre-emergence herbicidal action, VERPE; type: in vivo; settings: dosage 320 g/ha, scored visually after 3 weeks vs untreated controls (100% = plants have died)
How it was run: as §1

Question: Which “herbicidal activity VERPE” value does the source give for CCCn1nnnc1NC(=O)c1ccc(C(F)(F)F)c(CS(=O)(=O)CC)c1C [Example 3-88] here?
Answer: 100%

Question: CCS(=O)(=O)Cc1c(C(F)(F)F)ccc(C(=O)Nc2nnnn2C)c1Cl [Example 1-301] was tested. Which “herbicidal activity VERPE” value did it give?
Answer: 100%

Question: With Cc1c(C(=O)Nc2nnnn2C)ccc(C(F)(F)F)c1CS(C)(=O)=O [Example 1-85] as the molecule, how does the “herbicidal activity VERPE” value read?
Answer: 100%

Question: How did the “herbicidal activity VERPE” value turn out when CCn1nnnc1NC(=O)c1ccc(C(F)(F)F)c(CS(C)(=O)=O)c1Br [Example 2-382] was run?
Answer: 100%

Question: With CCn1nnnc1NC(=O)c1ccc(C)c(CSC)c1Cl [Example 2-287] as the molecule, how does the “herbicidal activity VERPE” value read?
Answer: 100%

Question: Which “herbicidal activity VERPE” value does the source give for CCn1nnnc1NC(=O)c1ccc(C(F)(F)F)c(CSC)c1SC [Example 2-161] here?
Answer: 100%

Question: How did the “herbicidal activity VERPE” value turn out when CSCc1c(C(F)(F)F)ccc(C(=O)Nc2nnnn2C)c1F [Example 1-242] was run?
Answer: 100%

Question: Cn1nnnc1NC(=O)c1ccc(C(F)(F)F)c(CS(C)(=O)=O)c1Cl [Example 1-298] was tested. Which “herbicidal activity VERPE” value did it give?
Answer: 100%

Question: For Cc1c(C(=O)Nc2nnnn2C)ccc(C(F)(F)F)c1C[S+](C)[O-] (centres unmarked) [Example 1-84], which “herbicidal activity VERPE” value is on record?
Answer: 100%

Question: For CCCn1nnnc1NC(=O)c1ccc(C(F)F)c(CSC)c1C [Example 3-107], which “herbicidal activity VERPE” value is on record?
Answer: 100%

system: Abutilon theophrasti; assay: Post-emergence herbicidal action, ABUTH; type: in vivo; parameters: key: % herbicidal action vs untreated; 100 = plants died, 0 = like control; settings: Dosage 80 g/ha
How it was run: (§2)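 Greenhouse post-emergence test: weeds sown in sandy loam were sprayed once at one leaf, 2 to 3 weeks from sowing, with aqueous WP or EC preparations carrying 0.2% wetting agent. Effect is scored visually after about 3 weeks.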

Question: How did the “herbicidal action ABUTH” value turn out when CCCn1nnnc1NC(=O)c1ccc(C(F)(F)F)c(CS(=O)(=O)CC)c1C [Example 3-88] was run?
Answer: 80

Question: Which “herbicidal action ABUTH” value does the source give for CCS(=O)(=O)Cc1c(C(F)(F)F)ccc(C(=O)Nc2nnnn2C)c1Cl [Example 1-301] here?
Answer: 80

Question: For Cc1c(C(=O)Nc2nnnn2C)ccc(C(F)(F)F)c1CS(C)(=O)=O [Example 1-85], which “herbicidal action ABUTH” value is on record?
Answer: 90

Question: With CCn1nnnc1NC(=O)c1ccc(C(F)(F)F)c(CS(C)(=O)=O)c1Br [Example 2-382] as the molecule, how does the “herbicidal action ABUTH” value read?
Answer: 100

Question: How did the “herbicidal action ABUTH” value turn out when CCn1nnnc1NC(=O)c1ccc(C)c(CSC)c1Cl [Example 2-287] was run?
Answer: 80

Question: CSCc1c(C(F)(F)F)ccc(C(=O)Nc2nnnn2C)c1F [Example 1-242] was tested. Which “herbicidal action ABUTH” value did it give?
Answer: 90

Question: CCCn1nnnc1NC(=O)c1ccc(C(F)F)c(CSC)c1C [Example 3-107] was tested. Which “herbicidal action ABUTH” value did it give?
Answer: 80

same assay, conditions: post-emergence, dosage 80 g/ha

Question: How did the “herbicidal action ABUTH” value turn out when CCn1nnnc1NC(=O)c1ccc(C(F)(F)F)c(CSC)c1SC [Example 2-161] was run?
Answer: 90%

Question: For Cn1nnnc1NC(=O)c1ccc(C(F)(F)F)c(CS(C)(=O)=O)c1Cl [Example 1-298], which “herbicidal action ABUTH” value is on record?
Answer: 80%

Question: How did the “herbicidal action ABUTH” value turn out when Cc1c(C(=O)Nc2nnnn2C)ccc(C(F)(F)F)c1C[S+](C)[O-] (centres unmarked) [Example 1-84] was run?
Answer: 90%

system: Amaranthus retroflexus; assay: Post-emergence herbicidal action, AMARE; type: in vivo; parameters: key: % herbicidal action vs untreated; 100 = plants died, 0 = like control; settings: Dosage 80 g/ha
How it was run: as §2

Question: For CCCn1nnnc1NC(=O)c1ccc(C(F)(F)F)c(CS(=O)(=O)CC)c1C [Example 3-88], which “herbicidal action AMARE” value is on record?
Answer: 80

Question: How did the “herbicidal action AMARE” value turn out when CCS(=O)(=O)Cc1c(C(F)(F)F)ccc(C(=O)Nc2nnnn2C)c1Cl [Example 1-301] was run?
Answer: 80

Question: How did the “herbicidal action AMARE” value turn out when Cc1c(C(=O)Nc2nnnn2C)ccc(C(F)(F)F)c1CS(C)(=O)=O [Example 1-85] was run?
Answer: 90

Question: With CCn1nnnc1NC(=O)c1ccc(C(F)(F)F)c(CS(C)(=O)=O)c1Br [Example 2-382] as the molecule, how does the “herbicidal action AMARE” value read?
Answer: 90

Question: CCn1nnnc1NC(=O)c1ccc(C)c(CSC)c1Cl [Example 2-287] was tested. Which “herbicidal action AMARE” value did it give?
Answer: 90

Question: Which “herbicidal action AMARE” value does the source give for CSCc1c(C(F)(F)F)ccc(C(=O)Nc2nnnn2C)c1F [Example 1-242] here?
Answer: 100

Question: How did the “herbicidal action AMARE” value turn out when CCCn1nnnc1NC(=O)c1ccc(C(F)F)c(CSC)c1C [Example 3-107] was run?
Answer: 90

same assay, conditions: comparative experiment, post-emergence, 5 g of a.i./ha

Question: Which “Herbicidal action against AMARE” value does the source give for Cn1nnnc1NC(=O)c1ccc(C(F)(F)F)c(CS(C)(=O)=O)c1Cl [Example 1-298] here?
Answer: 100

same assay, conditions: post-emergence, dosage 80 g/ha

Question: How did the “herbicidal action AMARE” value turn out when CCn1nnnc1NC(=O)c1ccc(C(F)(F)F)c(CSC)c1SC [Example 2-161] was run?
Answer: 100%

Question: Which “herbicidal action AMARE” value does the source give for Cn1nnnc1NC(=O)c1ccc(C(F)(F)F)c(CS(C)(=O)=O)c1Cl [Example 1-298] here?
Answer: 100%

Question: Which “herbicidal action AMARE” value does the source give for Cc1c(C(=O)Nc2nnnn2C)ccc(C(F)(F)F)c1C[S+](C)[O-] (centres unmarked) [Example 1-84] here?
Answer: 90%

system: Echinochloa crus-galli; assay: Post-emergence herbicidal action, ECHCG; type: in vivo; parameters: key: % herbicidal action vs untreated; 100 = plants died, 0 = like control; settings: Dosage 80 g/ha
How it was run: as §2

Question: With CCCn1nnnc1NC(=O)c1ccc(C(F)(F)F)c(CS(=O)(=O)CC)c1C [Example 3-88] as the molecule, how does the “herbicidal action ECHCG” value read?
Answer: 90

Question: Which “herbicidal action ECHCG” value does the source give for CCS(=O)(=O)Cc1c(C(F)(F)F)ccc(C(=O)Nc2nnnn2C)c1Cl [Example 1-301] here?
Answer: 90

Question: With Cc1c(C(=O)Nc2nnnn2C)ccc(C(F)(F)F)c1CS(C)(=O)=O [Example 1-85] as the molecule, how does the “herbicidal action ECHCG” value read?
Answer: 90

Question: Which “herbicidal action ECHCG” value does the source give for CCn1nnnc1NC(=O)c1ccc(C(F)(F)F)c(CS(C)(=O)=O)c1Br [Example 2-382] here?
Answer: 90

Question: For CCn1nnnc1NC(=O)c1ccc(C)c(CSC)c1Cl [Example 2-287], which “herbicidal action ECHCG” value is on record?
Answer: 100

Question: CSCc1c(C(F)(F)F)ccc(C(=O)Nc2nnnn2C)c1F [Example 1-242] was tested. Which “herbicidal action ECHCG” value did it give?
Answer: 100

Question: How did the “herbicidal action ECHCG” value turn out when CCCn1nnnc1NC(=O)c1ccc(C(F)F)c(CSC)c1C [Example 3-107] was run?
Answer: 90

same assay, conditions: post-emergence, dosage 80 g/ha

Question: Which “herbicidal action ECHCG” value does the source give for CCn1nnnc1NC(=O)c1ccc(C(F)(F)F)c(CSC)c1SC [Example 2-161] here?
Answer: 90%

Question: Which “herbicidal action ECHCG” value does the source give for Cn1nnnc1NC(=O)c1ccc(C(F)(F)F)c(CS(C)(=O)=O)c1Cl [Example 1-298] here?
Answer: 90%

Question: Which “herbicidal action ECHCG” value does the source give for Cc1c(C(=O)Nc2nnnn2C)ccc(C(F)(F)F)c1C[S+](C)[O-] (centres unmarked) [Example 1-84] here?
Answer: 90%

system: Veronica persica; assay: Post-emergence herbicidal action, VERPE; type: in vivo; parameters: key: % herbicidal action vs untreated; 100 = plants died, 0 = like control; settings: Dosage 80 g/ha
How it was run: as §2

Question: How did the “herbicidal action VERPE” value turn out when CCCn1nnnc1NC(=O)c1ccc(C(F)(F)F)c(CS(=O)(=O)CC)c1C [Example 3-88] was run?
Answer: 90

Question: With CCS(=O)(=O)Cc1c(C(F)(F)F)ccc(C(=O)Nc2nnnn2C)c1Cl [Example 1-301] as the molecule, how does the “herbicidal action VERPE” value read?
Answer: 100

Question: Cc1c(C(=O)Nc2nnnn2C)ccc(C(F)(F)F)c1CS(C)(=O)=O [Example 1-85] was tested. Which “herbicidal action VERPE” value did it give?
Answer: 100

Question: CCn1nnnc1NC(=O)c1ccc(C(F)(F)F)c(CS(C)(=O)=O)c1Br [Example 2-382] was tested. Which “herbicidal action VERPE” value did it give?
Answer: 100

Question: How did the “herbicidal action VERPE” value turn out when CCn1nnnc1NC(=O)c1ccc(C)c(CSC)c1Cl [Example 2-287] was run?
Answer: 80

Question: With CSCc1c(C(F)(F)F)ccc(C(=O)Nc2nnnn2C)c1F [Example 1-242] as the molecule, how does the “herbicidal action VERPE” value read?
Answer: 100

Question: For CCCn1nnnc1NC(=O)c1ccc(C(F)F)c(CSC)c1C [Example 3-107], which “herbicidal action VERPE” value is on record?
Answer: 100

same assay, conditions: comparative experiment, post-emergence, 5 g of a.i./ha

Question: Cn1nnnc1NC(=O)c1ccc(C(F)(F)F)c(CS(C)(=O)=O)c1Cl [Example 1-298] was tested. Which “Herbicidal action against VERPE” value did it give?
Answer: 90

same assay, conditions: post-emergence, dosage 80 g/ha

Question: Which “herbicidal action VERPE” value does the source give for CCn1nnnc1NC(=O)c1ccc(C(F)(F)F)c(CSC)c1SC [Example 2-161] here?
Answer: 100%

Question: Which “herbicidal action VERPE” value does the source give for Cn1nnnc1NC(=O)c1ccc(C(F)(F)F)c(CS(C)(=O)=O)c1Cl [Example 1-298] here?
Answer: 100%

Question: For Cc1c(C(=O)Nc2nnnn2C)ccc(C(F)(F)F)c1C[S+](C)[O-] (centres unmarked) [Example 1-84], which “herbicidal action VERPE” value is on record?
Answer: 100%
